The values that follow come from patent US7745450B2, “Pyrazolo[4,3-d]pyrimidines, processes for their preparation and methods for therapy” (Institute of Experimental Botany, priority 2002, dated 2010).

The subject of one experiment is B16. Nature of the experiment: In vitro cytotoxic activity, Calcein AM. Particulars: Mus musculus, B16, 72 h, three days. The experiment is classed as cell-based.
For another experiment, the target named is MMK1 protein kinase (Vicia faba, UniProt A0AAV1B7B8). Nature of the experiment: MMK1 protein kinase activity. The experiment is classed as biochemical. How it is done: Protein extraction and purification of pant CDK by binding to p13^suc1-beads or immunopurification with an antibody specific to the cdc2a-MS protein was carried out as described previously (Bögre et al. 1997, Plant Physiol. 113, 1997, 841-852). The MMK1 protein kinase was purified with a specific antibody from Vicia faba extracts as described by Bögre et al. 1997a, Plant Cell 9, 75-83). Protein kinase activity was measures as described above in Example 20. The quantification of radioactivity incorporated into histone H1 or myelin basic protein was undertaken using phosphoimager (FIG. 2).

Another experiment concerns normal human lymphocytes. Nature of the experiment: Immunosuppressive activity, 3H-thymidine incorporation in concanavalin A activated lymphocytes. The experiment is classed as cell-based. Particulars: Lymphocyte, 72 hours, [3H]-TdR, read-out: Human lymphocytes ED50. The method, then: Human heparinized peripheral blood was obtained from healthy volunteers by cubital vein punction. The blood was diluted in PBS (1:3) and mononuclear cells were separated by centrifugation in Ficoll-Hypaque density gradient (Pharmacia, 1.077 g/ml) at 2200 rpm for 30 minutes. Following centrifugation, lymphocytes were washed in PBS and resuspended in cell culture medium (RMPI 1640, 2 mM glutamine, 100 U/ml penicillin, 100 μg/ml streptomycin, 10% fetal calf serum and sodium bicarbonate).
The cells were diluted at target density of 1.100.000 cells/ml were added by pipette (180 μl) into 96/well microtiter plates. Four-fold dilutions of the intended test concentration were added at time zero in 20 μl aliquots to the microtiter plate wells. Usually, test compound was evaluated at six 4-fold dilutions. In routine testing, the highest well concentration was 266.7 μM. All drug concentrations were examined in duplicates. All wells with exception of unstimulated controls were activated with 50 μl of concanavalin A (25 μg/ml). Incubations of cells with test compounds lasted for 72 hours at 37° C., in 5% CO2 atmosphere and 100% humidity. At the end of incubation period, the cells were assayed by using the [^3H]-TdR:
Cell cultures were incubated with 0.5 μCi (20 μl of stock solution […]) per well for 6 hours at 37° C. and 5% CO2. The automated cell harvester was used to lyse cells in water and adsorb the DNA onto glass-fiber filters in the format of microtiter plate. The DNA incorporated [^3H]-TdR was retained on the filter while unincorporated material passes through. The filters were dried at room temperature overnight, sealed into a sample bag with 10-12 ml of scintillant. The amount of [^3H]-TdR present in each filter (in cpm) was determined by scintillation counting in a Betaplate liquid scintillation counter. The effective dose of immunosuppressant (ED) was calculated using the following equation: ED=(CCPMdrug exposed well/mean CCPMcontrol wells)×100%.
On the technique in general: Dividing cells build labelled thymidine or BrdU into new DNA.

The subject of experiment [1] is CEM (human lymphoblastoid leukemia). Briefly: In vitro cytotoxic activity, Calcein AM. The experiment is classed as cell-based. Particulars: Homo sapiens, 72 h, three days. The method, then:
We have been using the following cell lines: HELA (human cervical carcinoma), MCF7 (human breast adenocarcinoma), NIH 3T3 (mouse fibroblasts), HOS (human osteogenic sarcoma), HL 60 (human promyelocytic leukemia), G 361 (human malignant melanoma), K562 (human erythroleukemia), CEM (human lymphoblastoid leukemia). Tested drugs were added to the cell cultures in six different concentration and kept at 37° C. and 5% CO2 for three days. All cell lines were grown in DMEM medium (Gibco BRL) supplemented with 10% (v/v) fetal bovine serum and L-glutamine and maintained at 37° C. in a humidified atmosphere with 5% CO2. 10^4 cells were seeded into each well of 96 well plate, allowed to stabilize for at least 2 h and then tested compounds were added at various concentrations ranging from 200 to 0.2 μM in triplicates. Three days after drug addition Calcein AM solution (Molecular Probes) was added and let to enter the cells for 1 hour. Fluorescence of viable cells was quantified employing Fluoroskan Ascent (Microsystems).

Sequence of MMK1 protein kinase (A0AAV1B7B8 1-394): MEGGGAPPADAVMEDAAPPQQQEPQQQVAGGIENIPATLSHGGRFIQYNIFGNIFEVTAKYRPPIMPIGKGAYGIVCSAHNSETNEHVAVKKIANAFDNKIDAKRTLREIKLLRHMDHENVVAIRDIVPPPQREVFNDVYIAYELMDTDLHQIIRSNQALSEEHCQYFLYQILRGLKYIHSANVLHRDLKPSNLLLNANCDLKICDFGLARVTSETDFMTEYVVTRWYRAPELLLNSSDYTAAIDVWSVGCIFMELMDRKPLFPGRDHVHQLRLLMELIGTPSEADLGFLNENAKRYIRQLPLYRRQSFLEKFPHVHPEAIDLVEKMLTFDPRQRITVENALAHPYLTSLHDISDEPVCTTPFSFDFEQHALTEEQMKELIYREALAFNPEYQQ

As usually defined, the GI50 is the concentration giving 50% growth inhibition. As a reminder, the IC50 is the concentration that inhibits the measured activity by half. A high value points to weaker potency. On to `CC(C)c1n[nH]c2c(NCc3ccccc3)nc(NC3CCCCC3N)nc12` (stereo not shown), for which the GI50 in the experiment with B16 is 28 µM; in experiment [1] it was 14 µM. The IC50 on MMK1 protein kinase is 0.02 µM. In the experiment on normal human lymphocytes, the EC50 was found to be 0.8 µM.
The matching figures for `CC(C)c1n[nH]c2c(Nc3cccc(Cl)c3)nc(NCCCO)nc12`: 33 µM, 15 µM, 0.2 µM and 12 µM.
The corresponding values for `CC(C)c1n[nH]c2c(NCc3ccccc3)nc(NC3CCC(N)CC3)nc12` (stereo not shown) are 2.3 µM, 1.5 µM, 0.02 µM and 1.1 µM.
For the compound `Cc1n[nH]c2c(NCc3ccccc3)nc(NCCCN)nc12`, the values for the GI50 (in the experiment with B16; in experiment [1]) were 38 µM and 32 µM, respectively. The compound also displayed an IC50 against MMK1 protein kinase of 1.4 µM. In addition, the EC50 with normal human lymphocytes was 12.4 µM.
The matching figures for `Cc1n[nH]c2c(NCc3ccccc3)nc(NCCO)nc12`: 47 µM, 45 µM, 29.3 µM and 34 µM.
The corresponding values for `CC(C)c1n[nH]c2c(NCc3ccccc3)nc(N(CCO)CCO)nc12` are 38 µM, 25 µM, 1.1 µM and 16 µM.
The matching figures for `Cc1n[nH]c2c(NCc3ccccc3)nc(NCCN)nc12` [2-aminoethylamino / benzylamino / methyl]: 41 µM, 35 µM, 15 µM and 14.7 µM.
In the case of `CC(C)c1n[nH]c2c(NCc3ccccc3)nc(N[C@@H](CO)C(C)C)nc12`, the GI50 in the experiment on B16 is 2.3 µM; in experiment [1] it was 2.2 µM. Moreover, in the experiment on normal human lymphocytes, the EC50 worked out at 6.5 µM.
Turning to `CC(C)c1n[nH]c2c(Nc3cccc(Cl)c3)nc(NCCN)nc12`, the GI50 in the experiment on B16 was 22 µM; in experiment [1], 16 µM. The IC50 at MMK1 protein kinase was 0.25 µM. In addition, the EC50 in the experiment with normal human lymphocytes came to 6.7 µM.
With `CC(C)c1n[nH]c2c(NCc3ccccc3)nc(NCCCO)nc12`, the GI50 with B16 is 32 µM; in experiment [1], 21 µM. Half-maximal inhibition on MMK1 protein kinase (IC50) was put at 0.8 µM. In addition, the EC50 in the experiment with normal human lymphocytes is 21 µM.
Consider `Cc1n[nH]c2c(NCc3ccccc3)nc(NCCCO)nc12`, for which the GI50 in the experiment with B16 was 41 µM; in experiment [1] it was 40 µM. The compound further gave a concentration for half-maximal inhibition (IC50) on MMK1 protein kinase of 5.8 µM. In addition, the EC50 with normal human lymphocytes was found to be 28 µM.
The matching figures for `Cc1n[nH]c2c(NCc3ccccc3)nc(NC3CCC(N)CC3)nc12` (stereo not shown): 2.5 µM, 1.7 µM, 0.6 µM and 1.5 µM.
The corresponding values for `CC(C)c1n[nH]c2c(Nc3cccc(Cl)c3)nc(NCCCN)nc12` are 18 µM, 15 µM, 0.08 µM and 4.5 µM.
The corresponding values for `CC[C@H](CO)Nc1nc(NCc2ccccc2)c2n[nH]c(C(C)C)c2n1` are 3.2 µM, 2.4 µM, 0.03 µM and 4.5 µM.
With `CC(C)c1n[nH]c2c(NCc3ccccc3)nc(NCCO)nc12`, the values for the GI50 (with B16; in experiment [1]) were 37 µM and 25 µM, respectively. The IC50 at MMK1 protein kinase amounted to 2.3 µM. Moreover, the EC50 with normal human lymphocytes stood at 27 µM.
As to `Cc1n[nH]c2c(NCc3ccccc3)nc(N(CCO)CCO)nc12`, the concentration for 50% growth inhibition (GI50) is 40 µM in the experiment on B16 and 35 µM in experiment [1]. This compound also came in with an IC50 against MMK1 protein kinase of 8.1 µM. Also, the EC50 with normal human lymphocytes worked out at 25 µM.
Turning to `CC[C@H](CO)Nc1nc(N(C)CCc2ccc(O)c(O)c2)c2[nH]nc(C(C)C)c2n1`, the 50% growth inhibitory concentration (GI50) in the experiment on B16 was 18.6 µM; in experiment [1] it was 13.1 µM. The same compound came in with an IC50 against MMK1 protein kinase of 1.5 µM.
The corresponding values for `CC(=O)Oc1cccc(CNc2nc(NCCO)nc3c(C)n[nH]c23)c1` are 16.7 µM, 15.4 µM and 3.4 µM.
Consider `CC[C@H](CO)Nc1nc(Nc2cc(N)cc(Cl)c2)c2[nH]nc(C(C)C)c2n1`, for which the GI50 with B16 is 16.5 µM; in experiment [1], 9.4 µM. This compound also came in with an IC50 against MMK1 protein kinase of 0.02 µM.
As for `CC(C)c1n[nH]c2c(Nc3cccc(Cl)c3)nc(N(CCO)CCO)nc12`, the figures for the GI50 (in the experiment with B16; in experiment [1]) were 34 µM and 21 µM, respectively. This compound gave an IC50 on MMK1 protein kinase of 0.19 µM. Further, the EC50 in the experiment with normal human lymphocytes was 7 µM.
For the compound `Cc1n[nH]c2c(NCc3cccc(Cl)c3O)nc(NCCO)nc12`, the values for the GI50 (with B16; in experiment [1]) were 2.1 µM and 1.5 µM, respectively. On MMK1 protein kinase, this compound returned an IC50 of 0.38 µM.
In the case of `CC(C)c1n[nH]c2c(Nc3cccc(Cl)c3)nc(NC3CCCCC3N)nc12` (stereo not shown), the concentration for 50% growth inhibition (GI50) with B16 is 28 µM; in experiment [1], 14 µM. The compound also displayed an IC50 on MMK1 protein kinase of 0.012 µM. For the same compound, the EC50 in the experiment with normal human lymphocytes was 0.2 µM.
Consider `Cc1n[nH]c2c(Nc3ccc(Br)cc3)nc(NCCO)nc12`, for which the figures for the GI50 (in the experiment with B16; in experiment [1]) were 8.6 µM and 8.5 µM, respectively. Further, the IC50 at MMK1 protein kinase amounted to 0.15 µM.
As for `CC[C@H](CO)Nc1nc(N(C)Cc2ccc(O)c(O)c2)c2[nH]nc(C(C)C)c2n1`, the values for the GI50 (in the experiment with B16; in experiment [1]) were 19.4 µM and 11.6 µM, respectively. On MMK1 protein kinase, this compound yielded an IC50 of 0.51 µM.
For `CC(=O)Oc1ccccc1CNc1nc(N[C@@H](CO)C(C)C)nc2c(C(C)C)n[nH]c12`, the values for the GI50 (in the experiment on B16; in experiment [1]) were 10.9 µM and 8.7 µM, respectively. At MMK1 protein kinase, the IC50 amounted to 0.012 µM.
As to `Cc1n[nH]c2c(NCc3c(N)cccc3Cl)nc(NCCO)nc12`, the concentration for 50% growth inhibition (GI50) in the experiment on B16 is 7.2 µM; in experiment [1], 5.8 µM. The compound further gave an IC50 against MMK1 protein kinase of 0.86 µM.
For the compound `CC(C)c1n[nH]c2c(NCc3ccccc3)nc(NCCCN)nc12`, the values for the 50% growth inhibitory concentration (GI50) (in the experiment with B16; in experiment [1]) were 28 µM and 24 µM, respectively. Moreover, the EC50 with normal human lymphocytes stood at 9.8 µM.
`Cc1n[nH]c2c(NCc3ccccc3)nc(NC3CCCCC3N)nc12` (stereo not shown): the GI50 with B16 is 3.2 µM; in experiment [1] it was 2.3 µM. The same compound gave an IC50 on MMK1 protein kinase of 0.9 µM. In the experiment on normal human lymphocytes, the EC50 was found to be 1.2 µM.
The matching figures for `CC(C)c1n[nH]c2c(NCc3ccccc3)nc(NCCN)nc12`: 42 µM, 26 µM, 1.2 µM and 11.5 µM.
Regarding `CC[C@H](CO)Nc1nc(NCc2ccc(Cl)c(N)c2)c2[nH]nc(C(C)C)c2n1`, the figures for the GI50 (in the experiment on B16; in experiment [1]) were 18.7 µM and 11.4 µM, respectively. In addition, the IC50 on MMK1 protein kinase amounted to 0.024 µM.
The matching figures for `CC(=O)c1cccc(CNc2nc(NCCO)nc3c(C)n[nH]c23)c1`: 14.2 µM, 13.5 µM and 0.9 µM.
On to `CC(C)c1n[nH]c2c(N(C)CCc3ccc(O)c(O)c3)nc(N[C@@H](CO)C(C)C)nc12`, for which the GI50 with B16 was 9.7 µM; in experiment [1], 8.4 µM. At MMK1 protein kinase, this compound returned an IC50 of 0.15 µM.
The matching figures for `COc1ccc(CNc2nc(NCCO)nc3c(C)n[nH]c23)c(O)c1O`: 4.2 µM, 3.5 µM and 0.29 µM.
The corresponding values for `Cc1n[nH]c2c(NCc3ccc(O)c(O)c3)nc(NCCO)nc12` are 18.7 µM, 15.5 µM and 24 µM.
